# Laboratory results published in patent publication US5258406A, “Sulfonimidamides” (priority 1992, dated 1993).
# Like-named read-outs stand apart in the source and are kept apart here.
# Tests used:
# Format in all cases: in vivo
# B16 = details: IP, DX 10
# Procedure: (§1) The compounds were tested in C3H mice bearing a 6C3HED lymphosarcoma, also known as the Gardner lymphosarcoma (GLS), and in a variety of human tumor xenografts in CD1 nu/nu mice, including CX-1, LX-1, HXGC3, and VRC5. The 6C3HED lymphosarcoma was obtained from the Division of Cancer Treatment, National […] Institute, Tumor Bank, maintained at E. G. and G. Mason Research (Worcester, Mass.). The CX-1 human colon carcinoma and the LX-1 human lung carcinoma xenografts were obtained from the National Cancer Institute. The HXGC3 and VRC5 human colon xenografts were obtained from Dr. P. J. Houghton, St. Jude Children's Hospital in Memphis (see Br. J. Cancer, 37, 213 (1978)). First passage tumor was stored in liquid nitrogen using standard techniques. The transplanted tumor was reestablished from the Tumor Bank every six months or as needed. The tumor was maintained by serial passage twice weekly in C3H mice.
# (§2) In the procedure the tumor was removed from passage animals and minced into 1- to 3-mm square fragments using sterile techniques. Tumor pieces were checked for sterility using both Antibiotic Medium 1 and Brain Heart Infusion (Difco, Detroit, Mich.). Recipient mice were shaved and tumor pieces were implanted subcutaneously in the auxiliary region by trocar. Drug therapy on the appropriate schedule was initiated on the day after tumor implant for 6C3HED and after a seven (7) day delay for xenografts (or other delay as noted in Table 2). The compound being tested was mixed with 2.5% Emulphor EL620 from GAF Corporation (1:40 dilution in saline). Food and water were provided ad libitium. The drug was administered orally in 0.5 ml of 2.5% Emulphor (unless otherwise indicated). The tumor was measured the day after treatment ended with two dimensional measurements (width and length) of the tumor taken using automated digital calipers interfaced to a microcomputer. Approximate weight for the tumor was calculated using the following formula [Worzalla, J. F., et al., Invest. New Drugs, 8, 241 (1990], (tumor weight in mg)=(width in mm)^2 ×(length in mm)/2.
# (§3) At least one control group of an equal number of mice was treated with the same volume of 2.5% Emulphor only. The percent inhibition was determined by subtracting the ratio of the mean tumor size of the test group relative to the control group from one and multiplying the result times 100.
# (§4) The results of several experiments in mice bearing a 6C3HED lymphosarcoma (or other tumor where indicated) when the indicated compounds were administered are provided in Table 2. In Table 2, column 1 gives the Example number of the compound used, column 2 lists the dose level in mg/kg, column 3 provides the percent inhibition of tumor growth, column 4 gives the number of mice which died relative to the total number of animals in the group, column 5 gives the method of administration of the compound, and column 6 gives the dosage schedule. The protocol used with other tumors was the same as with the 6C3HED lymphosarcoma.
# CX1 = details: IP, DX 10, from day 7 after implant
# Procedure: as §1, §2, §3, §4
# GC3 = details: IP, DX 10
# Procedure: as §1, §2, §3, §4
# HC1 = details: IP, DX 10
# Procedure: as §1, §2, §3, §4
# LX1 = details: IP
# Procedure: as §1, §2, §3, §4
# MX1 = details: IP, DX 10
# Procedure: as §1, §2, §3, §4
# VRC5 = tested on: VRC5
# Procedure: as §1, §2, §3, §4
# C3H mammary adenocarcin = details: IP, DX 10
# Procedure: as §1, §2, §3, §4
# (g) Tumor type C3H mammary adenocarcin
# colon carcinoma26 = details: IP, DX 10
# Procedure: as §1, §2, §3, §4
# (i) Tumor type colon carcinoma26
# ELC2 = assay: Inhibition of ELC2 tumor growth in mice; details: IP, DX 10
# Procedure: as §1, §2, §3, §4
# [1] = 3.75 mg/kg, DX 10 (line among ELC2 lines)
# [2] = 3.75 mg/kg, DX 10, from day 7 after implant
# [3] = 7.5 mg/kg, DX 10, from day 7 after implant
# [4] = 15 mg/kg, DX 10, from day 7 after implant
# [5] = 30 mg/kg, DX 10, from day 7 after implant
# [6] = IP, 7.5 mg/kg, DX 10, from day 7 after implant
# [7] = IP, 15 mg/kg, DX 10, from day 7 after implant
# [8] = IP, 30 mg/kg, DX 10, from day 7 after implant
# [9] = IP, 60 mg/kg, DX 10, from day 7 after implant
smiles,measurement,setting,value
"Cc1ccc(S(=N)(=O)NC(=O)Nc2ccc(Cl)cc2)cc1C (centres unmarked) [Example 36, N-[[(4-chlorophenyl)amino]carbonyl]-3,4-dimethylbenzenesulfonimidamide]",% inhibition of tumor growth,B16; 3.75 mg/kg,0%
same,Tox/Tot (mice which died / total),B16; 3.75 mg/kg,0/10
same,% inhibition of tumor growth,B16; 7.5 mg/kg,0%
same,Tox/Tot (mice which died / total),B16; 7.5 mg/kg,0/10
same,% inhibition of tumor growth,B16; 15 mg/kg,0%
same,Tox/Tot (mice which died / total),B16; 15 mg/kg,0/10
same,% inhibition of tumor growth,B16; 30 mg/kg,9%
same,Tox/Tot (mice which died / total),B16; 30 mg/kg,0/10
same,% inhibition of tumor growth,CX1; 3.75 mg/kg,4%
same,Tox/Tot (mice which died / total),CX1; 3.75 mg/kg,0/10
same,% inhibition of tumor growth,CX1; 7.5 mg/kg,10%
same,Tox/Tot (mice which died / total),CX1; 7.5 mg/kg,0/10
same,% inhibition of tumor growth,CX1; 15 mg/kg,32%
same,Tox/Tot (mice which died / total),CX1; 15 mg/kg,1/10
same,% inhibition of tumor growth,CX1; 30 mg/kg,23%
same,Tox/Tot (mice which died / total),CX1; 30 mg/kg,4/10
same,% inhibition of tumor growth,GC3; 3.75 mg/kg,6%
same,Tox/Tot (mice which died / total),GC3; 3.75 mg/kg,0/10
same,% inhibition of tumor growth,GC3; 7.5 mg/kg,17%
same,Tox/Tot (mice which died / total),GC3; 7.5 mg/kg,0/10
same,% inhibition of tumor growth,GC3; 15 mg/kg,13%
same,Tox/Tot (mice which died / total),GC3; 15 mg/kg,1/10
same,% inhibition of tumor growth,GC3; 30 mg/kg,12%
same,Tox/Tot (mice which died / total),GC3; 30 mg/kg,9/10
same,% inhibition of tumor growth,HC1; 7.5 mg/kg,1%
same,Tox/Tot (mice which died / total),HC1; 7.5 mg/kg,0/10
same,% inhibition of tumor growth,HC1; 15 mg/kg,24%
same,Tox/Tot (mice which died / total),HC1; 15 mg/kg,0/10
same,% inhibition of tumor growth,HC1; 30 mg/kg,46%
same,Tox/Tot (mice which died / total),HC1; 30 mg/kg,6/10
same,% inhibition of tumor growth,HC1; 60 mg/kg,TOX
same,Tox/Tot (mice which died / total),HC1; 60 mg/kg,10/10
same,% inhibition of tumor growth,LX1; [1],0%
same,Tox/Tot (mice which died / total),LX1; [1],0/10
same,% inhibition of tumor growth,LX1; [2],16%
same,Tox/Tot (mice which died / total),LX1; [2],0/10
same,% inhibition of tumor growth,LX1; [3],1%
same,Tox/Tot (mice which died / total),LX1; [3],0/10
same,% inhibition of tumor growth,LX1; [4],18%
same,Tox/Tot (mice which died / total),LX1; [4],1/10
same,% inhibition of tumor growth,LX1; [5],TOX
same,Tox/Tot (mice which died / total),LX1; [5],10/10
same,% inhibition of tumor growth,MX1; 3.75 mg/kg,5%
same,Tox/Tot (mice which died / total),MX1; 3.75 mg/kg,0/10
same,% inhibition of tumor growth,MX1; 7.5 mg/kg,0%
same,Tox/Tot (mice which died / total),MX1; 7.5 mg/kg,0/10
same,% inhibition of tumor growth,MX1; 15 mg/kg,0%
same,Tox/Tot (mice which died / total),MX1; 15 mg/kg,0/10
same,% inhibition of tumor growth,MX1; 30 mg/kg,12%
same,Tox/Tot (mice which died / total),MX1; 30 mg/kg,4/10
same,% inhibition of tumor growth,VRC5; [6],0%
same,Tox/Tot (mice which died / total),VRC5; [6],1/10
same,% inhibition of tumor growth,VRC5; [7],0%
same,Tox/Tot (mice which died / total),VRC5; [7],0/10
same,% inhibition of tumor growth,VRC5; [8],44%
same,Tox/Tot (mice which died / total),VRC5; [8],4/10
same,% inhibition of tumor growth,VRC5; [9],TOX
same,Tox/Tot (mice which died / total),VRC5; [9],10/10
same,% inhibition of tumor growth,"VRC5; oral, 5 mg/kg, DX 10",0%
same,Tox/Tot (mice which died / total),"VRC5; oral, 5 mg/kg, DX 10",0/10
same,% inhibition of tumor growth,"VRC5; oral, 10 mg/kg, DX 10",10%
same,Tox/Tot (mice which died / total),"VRC5; oral, 10 mg/kg, DX 10",0/10
same,% inhibition of tumor growth,"VRC5; oral, 20 mg/kg, DX 10",45%
same,Tox/Tot (mice which died / total),"VRC5; oral, 20 mg/kg, DX 10",2/9
same,% inhibition of tumor growth,C3H mammary adenocarcin; 3.75 mg/kg,38%
same,Tox/Tot (mice which died / total),C3H mammary adenocarcin; 3.75 mg/kg,1/10
same,% inhibition of tumor growth,C3H mammary adenocarcin; 7.5 mg/kg,69%
same,Tox/Tot (mice which died / total),C3H mammary adenocarcin; 7.5 mg/kg,0/10
same,% inhibition of tumor growth,C3H mammary adenocarcin; 15 mg/kg,74%
same,Tox/Tot (mice which died / total),C3H mammary adenocarcin; 15 mg/kg,6/10
same,% inhibition of tumor growth,C3H mammary adenocarcin; 30 mg/kg,TOX
same,Tox/Tot (mice which died / total),C3H mammary adenocarcin; 30 mg/kg,10/10
same,% inhibition of tumor growth,colon carcinoma26; 3.75 mg/kg,5%
same,Tox/Tot (mice which died / total),colon carcinoma26; 3.75 mg/kg,0/10
same,% inhibition of tumor growth,colon carcinoma26; 7.5 mg/kg,14%
same,Tox/Tot (mice which died / total),colon carcinoma26; 7.5 mg/kg,0/10
same,% inhibition of tumor growth,colon carcinoma26; 15 mg/kg,6%
same,Tox/Tot (mice which died / total),colon carcinoma26; 15 mg/kg,0/10
same,% inhibition of tumor growth,colon carcinoma26; 30 mg/kg,26%
same,Tox/Tot (mice which died / total),colon carcinoma26; 30 mg/kg,0/10
same,% inhibition of tumor growth,ELC2; 7.5 mg/kg,0%
same,Tox/Tot (mice which died / total),ELC2; 7.5 mg/kg,0/10
same,% inhibition of tumor growth,ELC2; 15 mg/kg,3%
same,Tox/Tot (mice which died / total),ELC2; 15 mg/kg,0/10
same,% inhibition of tumor growth,ELC2; 30 mg/kg,TOX
same,Tox/Tot (mice which died / total),ELC2; 30 mg/kg,10/10
